# Measurements taken from article PMC4872165, “Targeting human respiratory syncytial virus transcription anti-termination factor M2-1 to inhibit in vivo viral replication” (Scientific Reports, 2016).
# Target: T1, hRSV RNA-dependent RNA polymerase (RdRp) complex with M2-1 (L, P, N, M2-1 minigenome) (Human respiratory syncytial virus A2, UniProt P04545)
# T1 construct: pN, pP, pL and pM2-1 plasmids (T7 promoter) in BSR-T7/5 (BHK-21) cells with pM/Luc minigenome; strain printed for the virus only, not for the plasmids; M2-1 tetrameric; with RNA-directed RNA polymerase L; Phosphoprotein; Nucleoprotein
# T1 sequence (P04545 whole entry, looked up, one chain of several): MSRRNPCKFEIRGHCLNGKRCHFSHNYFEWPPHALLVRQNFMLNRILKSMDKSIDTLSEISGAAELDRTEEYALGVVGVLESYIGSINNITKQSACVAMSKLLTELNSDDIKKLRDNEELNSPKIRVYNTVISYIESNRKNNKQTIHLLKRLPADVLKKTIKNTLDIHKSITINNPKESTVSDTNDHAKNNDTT
# Test: hRSV minigenome luciferase reporter assay in transfected BSR-T7/[…] cells
# Type: cell-based
compound,measurement,value
CC1=C2C[C@H]3[C@@H](CC=C4C[C@@H](O)CC[C@@]43C)[C@@H]2CC[C@]12O[C@@H]1C[C@H](C)CN[C@H]1[C@H]2C [cyclopamine],IC50,380 nM
